Source: ChEMBL document CHEMBL1155002, “Synthesis of phosphatidylated-monoterpene alcohols catalyzed by phospholipase D and their antiproliferative effects on human cancer cells” (2008)
Active and inactive are the calls of the source. The calls are words filed in the database; no cut-off is given here.

Legend:
PC-3 [1] = test: Antiproliferative activity against human PC3 cells assessed as reduction of cell viability after 72 hrs by WST-1 assay relative to control; format: functional; set-up: concentration or dose not given beside the values
HL-60 [2] = test: Antiproliferative activity against human HL60 cells by WST-1 assay; format: functional, cell-based; conditions: TDE = time-dependent effect
PC-3 [3] = test: Antiproliferative activity against human PC3 cells assessed as reduction of cell viability at 400 uM after 72 hrs by WST-1 assay; format: functional, cell-based
HL-60 [4] = test: Antiproliferative activity against human HL60 cells at 400 uM by WST-1 assay; format: functional, cell-based
PC-3 [5] = test: Antiproliferative activity against human PC3 cells assessed as cell viability at 100 uM after 72 hrs by WST-1 assay; format: functional, cell-based

CC(C)=CCC/C(C)=C/CO [GERANIOL]
Activity (PC-3 [1]): 10%
Activity (HL-60 [2]): tde
Activity (PC-3 [3]): inactive
Activity (HL-60 [4]): inactive

CC1(C)C2CC=C(CO)C1C2 (configuration not stated) [MYRTENOL]
Activity (PC-3 [1]): 10%
Activity (HL-60 [2]): tde
Activity (PC-3 [3]): inactive
Activity (HL-60 [4]): inactive

CC(C)=CCC/C(C)=C\COP(=O)(O)OCC(COC=O)OC=O (configuration not stated)
Activity (PC-3 [5]): Active

C=C(C)C1CC=C(COP(=O)(O)OCC(COC=O)OC=O)CC1 (configuration not stated) [PHOSPHATIDYL PERILLYL ALCOHOL]
Activity (PC-3 [5]): Active
Activity (PC-3 [1]): 10%

CC(C)=CCC/C(C)=C/COP(=O)(O)OCC(COC=O)OC=O (configuration not stated)
Activity (PC-3 [5]): Active

CC(C)=CCC/C(C)=C\CO [NEROL]
Activity (PC-3 [1]): 10%
Activity (HL-60 [2]): tde
Activity (PC-3 [3]): inactive
Activity (HL-60 [4]): inactive

CC1(C)C2CC=C(COP(=O)(O)OCC(COC=O)OC=O)C1C2 (configuration not stated) [PHOSPHATIDYL MYRTENOL]
Activity (PC-3 [5]): Active
Activity (PC-3 [1]): 10%

C=C(C)[C@@H]1CC=C(CO)CC1 [PERILLYL ALCOHOL]
Activity (PC-3 [1]): 10%
Activity (HL-60 [2]): tde
Activity (PC-3 [3]): inactive
Activity (HL-60 [4]): inactive
